In patent publication US11814367B2, “Inhibitors of glycogen synthase 1 (GYS1) and methods of use thereof” (Maze Therapeutics, Inc., priority 2021, dated 2023):

Key:
[1] = system: hGYS1 enzyme / glycogen synthesis in HeLa cells; experiment: GYS1 cell based assay (glycogen synthesis, Glucose-glo); parameters: species or system human; details: Homo sapiens, HeLa, 24 h, 24 h incubation, 20 mM glucose, geometric mean of at least 2 runs
Outline: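 HeLa cells starved 24 h in medium containing only 1× Glutamax were plated onto compound in medium with 20 mM glucose (1% DMSO final) for 24 h, 37 °C, 5% CO2. Acid lysates were Tris-quenched, glucoamylase-digested (pH 5.3, 1 h, 37 °C) and read by Glucose-glo luminescence. IC50 came from Hill fits, as geometric mean of ≥2 runs.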

[2] = target: hGYS1 enzyme (recombinant hGYS1/GN1 protein) (Homo sapiens (Human), UniProt P13807); experiment: GYS1 coupled enzyme assay (PK/LDH); format: biochemical; details: hGYS1/GN1 50 nM, UDP-Glucose 0.8 mM, G6P 1 mM; geometric mean of at least 2 runs
[3] = target: hGYS2 enzyme (recombinant hGYS2/GN1 protein) (Homo sapiens (Human), UniProt P54840); experiment: GYS2 coupled enzyme assay (PK/LDH); format: biochemical; details: geometric mean of at least 2 assay runs on separate days, read-out: Avg_IC50
Outline: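 Recombinant hGYS2/GN1 (200 nM) with 2 mM UDP-glucose, 0.2% rabbit liver glycogen, 2 mM glucose-6-phosphate; UDP coupled via PK/LDH (2 mM PEP, 0.6 mM NADH). Buffer 50 mM Tris pH 7.5, 2 mM MgCl2, 100 mM KCl, 2.5% DMSO. A340 slope over 10 min; IC50 from Hill fit of duplicates.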

Sequence of hGYS2 enzyme (recombinant hGYS2/GN1 protein) (P54840 whole entry): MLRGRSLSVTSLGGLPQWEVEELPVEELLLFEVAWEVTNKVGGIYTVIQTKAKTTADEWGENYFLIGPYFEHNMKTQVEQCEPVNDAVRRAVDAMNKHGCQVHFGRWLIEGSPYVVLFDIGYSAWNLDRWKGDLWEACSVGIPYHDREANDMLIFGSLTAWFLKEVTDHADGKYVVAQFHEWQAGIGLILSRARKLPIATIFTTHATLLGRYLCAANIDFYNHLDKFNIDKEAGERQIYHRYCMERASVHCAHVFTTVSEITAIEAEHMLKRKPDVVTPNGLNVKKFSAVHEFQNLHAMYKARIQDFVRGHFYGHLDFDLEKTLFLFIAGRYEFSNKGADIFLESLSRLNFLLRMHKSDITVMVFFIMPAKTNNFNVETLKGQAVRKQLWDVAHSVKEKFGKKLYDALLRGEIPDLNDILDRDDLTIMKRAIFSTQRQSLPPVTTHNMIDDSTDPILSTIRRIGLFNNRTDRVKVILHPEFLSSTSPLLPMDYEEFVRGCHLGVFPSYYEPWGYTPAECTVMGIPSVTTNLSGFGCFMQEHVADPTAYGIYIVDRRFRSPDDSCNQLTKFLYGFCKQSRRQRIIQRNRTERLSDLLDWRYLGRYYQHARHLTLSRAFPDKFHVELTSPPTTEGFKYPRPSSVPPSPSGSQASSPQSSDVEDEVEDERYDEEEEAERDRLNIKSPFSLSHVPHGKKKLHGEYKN
Sequence of hGYS2 enzyme (recombinant hGYS2/GN1 protein) (P46976 whole entry partner): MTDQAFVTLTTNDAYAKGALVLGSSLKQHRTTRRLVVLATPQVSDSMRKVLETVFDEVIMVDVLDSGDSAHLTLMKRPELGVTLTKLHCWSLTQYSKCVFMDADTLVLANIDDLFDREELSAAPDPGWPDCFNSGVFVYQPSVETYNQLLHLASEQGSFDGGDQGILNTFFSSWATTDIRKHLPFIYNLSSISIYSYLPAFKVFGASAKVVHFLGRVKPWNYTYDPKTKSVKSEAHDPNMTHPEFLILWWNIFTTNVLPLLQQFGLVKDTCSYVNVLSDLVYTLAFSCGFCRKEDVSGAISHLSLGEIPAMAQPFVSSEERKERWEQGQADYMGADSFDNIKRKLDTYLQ
Sequence of hGYS1 enzyme (recombinant hGYS1/GN1 protein) (P13807 whole entry): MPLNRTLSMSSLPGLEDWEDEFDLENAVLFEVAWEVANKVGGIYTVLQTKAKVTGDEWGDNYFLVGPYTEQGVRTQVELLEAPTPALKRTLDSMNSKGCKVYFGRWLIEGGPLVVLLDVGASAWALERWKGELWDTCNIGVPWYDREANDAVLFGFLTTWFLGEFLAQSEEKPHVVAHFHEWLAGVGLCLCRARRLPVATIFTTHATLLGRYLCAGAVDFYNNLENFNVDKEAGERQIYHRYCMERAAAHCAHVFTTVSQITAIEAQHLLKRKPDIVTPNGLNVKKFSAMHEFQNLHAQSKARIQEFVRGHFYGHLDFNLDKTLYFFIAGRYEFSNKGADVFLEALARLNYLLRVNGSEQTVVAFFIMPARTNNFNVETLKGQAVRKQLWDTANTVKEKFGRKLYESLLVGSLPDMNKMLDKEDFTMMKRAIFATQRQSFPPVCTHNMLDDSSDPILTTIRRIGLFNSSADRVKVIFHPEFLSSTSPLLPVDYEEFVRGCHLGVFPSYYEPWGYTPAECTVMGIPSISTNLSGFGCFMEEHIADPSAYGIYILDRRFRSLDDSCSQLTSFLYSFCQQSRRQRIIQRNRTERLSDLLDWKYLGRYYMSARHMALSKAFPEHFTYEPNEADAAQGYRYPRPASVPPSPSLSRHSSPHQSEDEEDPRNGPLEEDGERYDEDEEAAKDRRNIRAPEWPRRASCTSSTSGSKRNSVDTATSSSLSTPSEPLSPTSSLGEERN
Sequence of hGYS1 enzyme (recombinant hGYS1/GN1 protein) (P46976 whole entry partner): as the sequence (P46976 whole entry partner) above

| Compound | IC50 [1] | IC50 [2] | IC50 [3] |
| --- | --- | --- | --- |
| O=C(N[C@@H](c1ccccc1)c1ccc(C2CC2)c(F)n1)[C@@H]1C[C@@H](F)CN1C(=O)Cn1nccc1C(F)F [Compound 725, (2S,4R)-N-[(S)-(5-cyclopropyl-6-fluoropyridin-2-yl)(phenyl)methyl]-1-{2-[5-(difluoromethyl)-1H-pyrazol-1-yl]acetyl}-4-fluoropyrrolidine-2-carboxamide] | 310 nM | 15 nM | > 100000 nM |
| O=C(N[C@@H](c1ccccc1)c1ccc(C2CC2)c(F)c1)[C@@H]1C[C@@H](F)CN1C(=O)Cc1n[nH]c2ccccc12 [Compound 458, (2S,4R)-N-[(S)-(4-cyclopropyl-3-fluorophenyl)(phenyl)methyl]-4-fluoro-1-[2-(1H-indazol-3-yl)acetyl]pyrrolidine-2-carboxamide] | 1330 nM | 71 nM | > 100000 nM |
| CC(C)c1ccc([C@@H](NC(=O)[C@@H]2C[C@@H](F)CN2C(=O)Cn2cc(N(C)C)nn2)c2ccccc2)nc1F [Compound 393, (2S,4R)-1-{2-[4-(dimethylamino)-1H-1,2,3-triazol-1-yl]acetyl}-4-fluoro-N-[(S)-[6-fluoro-5-(propan-2-yl)pyridin-2-yl](phenyl)methyl] pyrrolidine-2-carboxamide] | 120 nM | 8 nM | > 100000 nM |
| CC(C)c1ccc([C@@H](NC(=O)[C@@H]2C[C@@H](F)CN2C(=O)Cc2nnc(C(F)F)o2)c2ccccc2)nc1 [Compound 253, (2S,4R)-1-{2-[5-(difluoromethyl)-1,3,4-oxadiazol-2-yl]acetyl}-4-flouro-N-[(S)-phenyl[5-(propan-2-yl)pyridin-2-yl]methyl]pyrrolidine-2-carboxamide] | 1090 nM | 67 nM | > 100000 nM |
| CC1(c2ccc([C@@H](NC(=O)[C@@H]3C[C@@H](F)CN3C(=O)COC(=O)N3CCN(CC(F)(F)F)CC3)c3ccccc3)cc2F)CC1 [Compound 585, 2-[(2S,4R)-4-fluoro-2-{[(S)-[3-fluoro-4-(1-methylcyclopropyl)phenyl](phenyl)methyl]carbamoyl}pyrrolidin-1-yl]-2-oxoethyl 4-(2,2,2-trifluoroethyl) piperazine-1-carboxylate] | 3210 nM | 202 nM | > 100000 nM |
| O=C(N[C@@H](c1ccccc1)c1ccc(C2CC(F)(F)C2)c(F)n1)[C@@H]1C[C@@H](F)CN1C(=O)Cn1ccc(=O)[nH]c1=O [Compound 514, (2S,4R)-N-[(S)-[5-(3,3-difluorocyclobutyl)-6-fluoropyridin-2-yl](phenyl)methyl]-1-[2-(2,4-dioxo-1,2,3,4-tetrahydropyrimidin-1-yl)acetyl]-4-fluoropyrrolidine-2-carboxamide] | 770 nM | 7 nM | > 100000 nM |
| CC(C)c1ccc([C@@H](NC(=O)[C@@H]2C[C@@H](F)CN2C(=O)Cn2nncc2C(F)(F)F)c2ccccc2)cc1F [Compound 322, (2S,4R)-4-fluoro-N—((S)-(3-fluoro-4-isopropylphenyl)(phenyl)methyl)-1-(2-(5-(trifluoromethyl)-1H-1,2,3-triazol-1-yl)acetyl)pyrrolidine-2-carboxamide] | 290 nM | 13 nM | > 100000 nM |
| CC(C)c1ccc([C@@H](NC(=O)[C@@H]2C[C@@H](F)CN2C(=O)Cn2cnnn2)c2ccccc2)cc1F [Compound 330, (2S,4R)-4-fluoro-N-[(S)-[3-fluoro-4-(propan-2-yl)phenyl](phenyl)methyl]-1-[2-(1H-1,2,3,4-tetrazol-1-yl)acetyl]pyrrolidine-2-carboxamide] | 560 nM | 21 nM | > 100000 nM |
| CC(C)c1ccc([C@@H](NC(=O)[C@@H]2C[C@@H](F)CN2C(=O)Cc2cccn3c(=O)[nH]nc23)c2ccccc2)cc1F [Compound 379, (2S,4R)-4-fluoro-N-[(S)-[3-fluoro-4-(propan-2-yl)phenyl](phenyl)methyl]-1-(2-{3-oxo-2H,3H-[1,2,4]triazolo[4,3-a]pyridin-8-yl}acetyl)pyrrolidine-2-carboxamide] | 190 nM | 8 nM | > 100000 nM |
| CC(C)c1ccc([C@@H](NC(=O)[C@@H]2C[C@@H](F)CN2C(=O)COC(=O)N(C)C)c2ccccc2)cc1F [Compound 360, 2-[(2S,4R)-4-fluoro-2-{[(S)-[3-fluoro-4-(propan-2-yl)phenyl](phenyl)methyl]carbamoyl}pyrrolidin-1-yl]-2-oxoethyl N,N-dimethylcarbamate] | 310 nM | 19 nM | > 100000 nM |
| CC(C)c1ccc([C@@H](NC(=O)[C@@H]2C[C@@H](F)CN2C(=O)Cn2nncc2CN)c2ccccc2)cc1 [Compound 240, (2S,4R)-1-{2-[5-(aminomethyl)-1H-1,2,3-triazol-1-yl]acetyl}-4-fluoro-N-[(S)-phenyl[4-(propan-2-yl)phenyl]methyl]pyrrolidine-2-carboxamide] | 2090 nM | 60 nM | > 100000 nM |
| CN(C)C(=O)NCC(=O)N1C[C@H](F)C[C@H]1C(=O)N[C@@H](c1ccccc1)c1ccc(C2CC(F)(F)C2)c(F)c1 [Compound 547, (2S,4R)-N-[(S)-[4-(3,3-difluorocyclobutyl)-3-fluorophenyl](phenyl)methyl]-1-{2-[(dimethylcarbamoyl)amino]acetyl}-4-fluoropyrrolidine-2-carboxamide] | 360 nM | 16 nM | > 100000 nM |
| Cc1cn(CC(=O)N2C[C@H](F)C[C@H]2C(=O)N[C@@H](c2ccccc2)c2ccc(C(C)C)c(F)c2)c(=O)[nH]c1=O [Compound 352, (2S,4R)-4-fluoro-N-[(S)-[3-fluoro-4-(propan-2-yl)phenyl](phenyl)methyl]-1-[2-(5-methyl-2,4-dioxo-1,2,3,4-tetrahydropyrimidin-1-yl)acetyl]pyrrolidine-2-carboxamide] | 110 nM | 5 nM | > 100000 nM |
| Cn1c(=O)ccn(CC(=O)N2C[C@H](F)C[C@H]2C(=O)N[C@@H](c2ccccc2)c2ccc(C3(C)CC3)c(F)c2)c1=O [Compound 569, (2S,4R)-4-fluoro-N-[(S)-[3-fluoro-4-(1-methylcyclopropyl)phenyl](phenyl)methyl]-1-[2-(3-methyl-2,4-dioxo-1,2,3,4-tetrahydropyrimidin-1-yl)acetyl]pyrrolidine-2-carboxamide] | 960 nM | 66 nM | > 100000 nM |
| Cc1nccc(N(C)CC(=O)N2C[C@H](F)C[C@H]2C(=O)N[C@@H](c2ccccc2)c2ccc(C3CC3)c(F)c2)n1 [Compound 476, (2S,4R)-N-[(S)-(4-cyclopropyl-3-fluorophenyl)(phenyl)methyl]-4-fluoro-1-{2-[methyl(2-methylpyrimidin-4-yl)amino]acetyl} pyrrolidine-2-carboxamide] | 900 nM | 39 nM | > 100000 nM |
| Cc1nn(CC(=O)N2C[C@H](F)C[C@H]2C(=O)N[C@@H](c2ccccc2)c2ccc(C3CC(F)(F)C3)cn2)c(=O)o1 [Compound 541, (2S,4R)-N-[(S)-[5-(3,3-difluorocyclobutyl)pyridin-2-yl](phenyl)methyl]-4-fluoro-1-[2-(5-methyl-2-oxo-2,3-dihydro-1,3,4-oxadiazol-3-yl)acetyl]pyrrolidine-2-carboxamide] | 650 nM | 55 nM | > 100000 nM |
| O=C(N[C@@H](c1ccccc1)c1ccc(C2CC(F)(F)C2)cn1)[C@@H]1C[C@@H](F)CN1C(=O)Cc1cnn[nH]1 [Compound 534, (2S,4R)-N-[(S)-[5-(3,3-difluorocyclobutyl)pyridin-2-yl](phenyl)methyl]-4-fluoro-1-[2-(1H-1,2,3-triazol-5-yl)acetyl]pyrrolidine-2-carboxamide] | 1280 nM | 57 nM | > 100000 nM |
| CC(C)c1ccc([C@@H](NC(=O)[C@@H]2C[C@@H](F)CN2C(=O)CNC(=O)N2CC(F)(F)C2)c2ccccc2)nc1F [Compound 410, (2S,4R)-1-{2-[(3,3-difluoroazetidine-1-carbonyl)amino]acetyl}-4-fluoro-N-[(S)-[6-fluoro-5-(propan-2-yl)pyridin-2-yl](phenyl)methyl]pyrrolidine-2-carboxamide] | 130 nM | 8 nM | > 100000 nM |
| Cc1cnc(CC(=O)N2C[C@H](F)C[C@H]2C(=O)N[C@@H](c2ccccc2)c2ccc(C(C)C)c(F)n2)o1 [Compound 408, (2S,4R)-4-fluoro-N-[(S)-[6-fluoro-5-(propan-2-yl)pyridin-2-yl](phenyl)methyl]-1-[2-(5-methyl-1,3-oxazol-2-yl)acetyl] pyrrolidine-2-carboxamide] | 350 nM | 8 nM | > 100000 nM |
| CC(C)c1ccc([C@@H](NC(=O)[C@@H]2C[C@@H](F)CN2C(=O)Cn2cc(C(F)(F)F)cn2)c2ccccc2)nc1F [Compound 788] | 340 nM | 20 nM | > 100000 nM |
| CC(C)c1ccc([C@@H](NC(=O)[C@@H]2C[C@@H](F)CN2C(=O)CCn2nc3ccccn3c2=O)c2ccccc2)nc1F [Compound 780, (2S,4R)-4-fluoro-N-[(S)-[6-fluoro-5-(propan-2-yl)pyridin-2-yl](phenyl)methyl]-1-{3-{3-oxo-2H,3H-[1,2,4]triazolo[4,3-a]pyridin-2-yl}propanoyl)pyrrolidine-2-carboxamide] | 280 nM | 9 nM | > 100000 nM |
